This is an account of results in paper PMC4369398 (Journal of colloid and interface science, 2014).

One series is described as follows: Self-assembly in water. The format is physicochemical. The following applies: for diameter (width) of self-assembled nanofibers: TEM, pH 7.0, 2.0 wt %, direct self-assembly without enzyme; for appearance / state in water: pH 7.0, 2.0 wt % concentration, optical image, for 2 via pH adjustment.
For a further series, the target named is T1, CD73 (Homo sapiens, UniProt P21589).
T1 sequence (P21589 27-574): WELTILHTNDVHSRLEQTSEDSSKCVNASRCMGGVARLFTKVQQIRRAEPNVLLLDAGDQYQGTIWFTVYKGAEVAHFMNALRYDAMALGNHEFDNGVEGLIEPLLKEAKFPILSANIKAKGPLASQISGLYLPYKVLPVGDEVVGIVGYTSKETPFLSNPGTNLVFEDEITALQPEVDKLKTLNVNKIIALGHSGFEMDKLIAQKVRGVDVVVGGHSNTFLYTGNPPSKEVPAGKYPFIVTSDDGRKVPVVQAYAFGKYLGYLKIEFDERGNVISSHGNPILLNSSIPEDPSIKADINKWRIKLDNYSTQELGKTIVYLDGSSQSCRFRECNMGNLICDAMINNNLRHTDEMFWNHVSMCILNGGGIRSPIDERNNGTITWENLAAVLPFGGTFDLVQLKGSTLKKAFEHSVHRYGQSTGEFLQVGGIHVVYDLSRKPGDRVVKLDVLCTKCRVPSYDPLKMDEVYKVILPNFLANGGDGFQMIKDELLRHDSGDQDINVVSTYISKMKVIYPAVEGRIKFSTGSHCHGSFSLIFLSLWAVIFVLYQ

`O=C(Cc1ccc2ccccc2c1)N[C@H](Cc1ccccc1)C(=O)N[C@H](Cc1ccccc1)C(=O)N[C@H](CCCCNc1ncnc2c1ncn2[C@@H]1O[C@H](CO)[C@@H](O)[C@H]1O)C(=O)O` [compound 2, naphthalene-D-Phe-D-Phe-D-Lys(adenosine)]: in “Self-assembly in water”, the “diameter (width) of self-assembled nanofibers” value stood at 5 ± 1 nm and the “appearance / state in water” value is “transparent hydrogel”.
For `O=C(Cc1ccc2ccccc2c1)N[C@H](Cc1ccccc1)C(=O)N[C@H](Cc1ccccc1)C(=O)N[C@H](CCCCNc1ncnc2c1ncn2[C@@H]1O[C@H](COP(=O)(O)O)[C@@H](O)[C@H]1O)C(=O)O` [compound 1, naphthalene-D-Phe-D-Phe-D-Lys(AMP)], in the series “Self-assembly in water”, the “diameter (width) of self-assembled nanofibers” value is given as 8 ± 1 nm and the “appearance / state in water” value is on record as “transparent solution”. The “hydrogel formation on adding CD73” value at CD73 (1 μg of CD73 added to 0.5 mL of 2 wt % solution, 37 °C, pH 7.0) is given as “hydrogel formation after three days”. The “diameter of nanofibers of the CD73-formed hydrogel” value at CD73 (TEM, after CD73 treatment, pH 7.0, 2.0 wt %) was 8 ± 1 nm.
